ChEMBL document CHEMBL3616435, “Cytotoxic cardenolides from the latex of Calotropis procera” (Bioorg Med Chem Lett, 2015)

The molecules below were run on Mycobacterium tuberculosis (assay: Antimicrobial activity against Mycobacterium bovis BCG after 3 days by broth microdilution method). Conditions: variant bovis BCG, 72 h.
Assay type: functional

SMILES | MIC [µg/mL]
C[C@@H]1C[C@@H](O)[C@]2(O)O[C@@H]3C[C@@]4(C=O)[C@@H](CC[C@@H]5[C@@H]4CC[C@]4(C)[C@@H](C6=CC(=O)OC6)C[C@@H](O)[C@]54O)C[C@H]3O[C@@H]2C1 | > 80
CO[C@@H]1C[C@@H](C)C[C@H]2O[C@@H]3C[C@@H]4CC[C@@H]5[C@H](CC[C@]6(C)[C@@H](C7=CC(=O)OC7)C[C@@H](O)[C@]56O)[C@@]4(C=O)C[C@H]3O[C@@]12O | > 80
C[C@@H]1C[C@@H](O)[C@]2(O)O[C@@H]3C[C@@]4(C)[C@@H](CC[C@@H]5[C@@H]4CC[C@]4(C)[C@@H](C6=CC(=O)OC6)C[C@@H](O)[C@]54O)C[C@H]3O[C@@H]2C1 | > 80
C[C@H]1C[C@H]2O[C@@H]3C[C@@H]4CC[C@@H]5[C@H](CC[C@]6(C)[C@@H](C7=CC(=O)OC7)CC[C@]56O)[C@@]4(C=O)C[C@H]3O[C@@]2(O)[C@H](O)[C@@H]1O | > 80
C[C@H]1C[C@H]2O[C@@H]3C[C@@H]4CC[C@@H]5[C@H](CC[C@]6(C)[C@@H](C7=CC(=O)OC7)C[C@@H](O)[C@]56O)[C@@]4(C=O)C[C@H]3O[C@@]2(O)[C@@]2(C1)N=CCS2 | > 80
C[C@]12[C@H](O)C[C@H]3[C@@H](CC[C@H]4C[C@H](O)CC[C@@]43CO)[C@@]1(O)CC[C@@H]2C1=CC(=O)OC1 | > 80
C[C@]12[C@H](O)C[C@H]3[C@@H](CC[C@H]4C[C@H](O)CC[C@@]43C=O)[C@@]1(O)CC[C@@H]2C1=CC(=O)OC1 | > 80
C[C@]12C[C@@H](O)[C@H](O)C[C@@H]1CC[C@@H]1[C@@H]2CC[C@]2(C)[C@@H](C3=CC(=O)OC3)C[C@@H](O)[C@]12O | > 80
C[C@]12[C@H](O)C[C@H]3[C@@H](CC[C@H]4C[C@@H](O)CC[C@@]43CO)[C@@]1(O)CC[C@@H]2C1=CC(=O)OC1 | > 80
C[C@@H]1C[C@@H](O)[C@]2(O)O[C@@H]3C[C@@]4(C=O)[C@@H](CC[C@@H]5[C@@H]4CC[C@]4(C)[C@@H](C6=CC(=O)OC6)CC[C@]54O)C[C@H]3O[C@@H]2O1 [CALACTIN] | > 80
C[C@@H]1C[C@@]2(N=CCS2)[C@]2(O)O[C@@H]3C[C@@]4(C=O)[C@@H](CC[C@@H]5[C@@H]4CC[C@]4(C)[C@@H](C6=CC(=O)OC6)CC[C@]54O)C[C@H]3O[C@@H]2O1 [USCHARIN] | > 80
